According to PubChem BioAssay (NCI):
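All cell lines were grown in 96-well plates and treated with compound for 48 hours. Definition used: TGI = concentration required for complete inhibition of growth.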

Tests used:
Assay in all cases: NCI anticancer screen, dose series, 48 h
[1] = system: 786-0 renal
[2] = system: A498 renal
[3] = system: A549 NSCLC
[4] = system: ACHN renal
[5] = system: BT-549 breast
[6] = system: CAKI-1 renal
[7] = system: CCRF-CEM leukemia
[8] = system: COLO 205 colon
[9] = system: DU-145 prostate
[10] = system: EKVX NSCLC
[11] = system: HCT-116 colon
[12] = system: HCT-15 colon
[13] = system: HL-60(TB) leukemia
[14] = system: HOP-62 NSCLC
[15] = system: HOP-92 NSCLC
[16] = system: HS 578T breast
[17] = system: HT29 colon
[18] = system: IGROV1 ovarian
[19] = system: K-562 leukemia
[20] = system: KM12 colon
[21] = system: LOX IMVI melanoma
[22] = system: M14 melanoma
[23] = system: MALME-3M melanoma
[24] = system: MCF7 breast
[25] = system: MDA-MB-231 breast
[26] = system: MDA-MB-435
[27] = system: MDA-N
[28] = system: MOLT-4 leukemia
[29] = system: NCI-H23 lung
[30] = system: NCI-H522 lung
[31] = system: NCI/ADR-RES ovarian
[32] = system: OVCAR-3 ovarian
[33] = system: OVCAR-4 ovarian
[34] = system: OVCAR-5 ovarian
[35] = system: OVCAR-8 ovarian
[36] = system: PC-3 prostate
[37] = system: RPMI-8226 leukemia
[38] = system: RXF 393 renal
[39] = system: SF-268 CNS
[40] = system: SF-295 CNS
[41] = system: SF-539 CNS
[42] = system: SK-MEL-2 melanoma
[43] = system: SK-MEL-28 melanoma
[44] = system: SK-OV-3 ovarian
[45] = system: SN12C renal
[46] = system: SNB-19 CNS
[47] = system: SNB-75 CNS
[48] = system: SR leukemia
[49] = system: SW-620 colon
[50] = system: T-47D breast
[51] = system: TK-10 renal
[52] = system: U251 CNS
[53] = system: UACC-257 melanoma
[54] = system: UO-31 renal
[55] = system: HCC-2998 colon
[56] = system: NCI-H226 lung
[57] = system: NCI-H460 lung
[58] = system: SK-MEL-5 melanoma
[59] = system: UACC-62 melanoma
[60] = system: DLD-1 colon
[61] = system: DMS 114 small cell lung
[62] = system: KM20L2 colon
[63] = system: LXFL 529 NSCLC
[64] = system: M19-MEL melanoma

Oc1c(CN2CCN(c3ccccc3)CC2)cc(Br)c2cccnc12
TGI [1]: 14.5 µM | TGI [2]: > 100 µM | TGI [3]: > 100 µM | TGI [4]: > 34.4 µM | TGI [5]: > 100 µM | TGI [6]: > 100 µM | TGI [7]: > 100 µM | TGI [8]: > 100 µM | TGI [9]: 13.8 µM | TGI [10]: > 29.3 µM | TGI [11]: > 28.4 µM | TGI [12]: > 100 µM | TGI [13]: 3.81 µM | TGI [14]: 15.2 µM | TGI [15]: 30.8 µM | TGI [16]: > 88.6 µM | TGI [17]: > 95.8 µM | TGI [18]: > 100 µM | TGI [19]: > 40.8 µM | TGI [20]: > 100 µM | TGI [21]: 17 µM | TGI [22]: > 42 µM | TGI [23]: 42.2 µM | TGI [24]: > 100 µM | TGI [25]: 15.7 µM | TGI [26]: > 100 µM | TGI [27]: > 100 µM | TGI [28]: 6.15 µM | TGI [29]: > 100 µM | TGI [30]: 36.8 µM | TGI [31]: > 100 µM | TGI [32]: > 79.5 µM | TGI [33]: > 100 µM | TGI [34]: > 67.4 µM | TGI [35]: > 100 µM | TGI [36]: 32.5 µM | TGI [37]: > 40.4 µM | TGI [38]: 13.5 µM | TGI [39]: > 71 µM | TGI [40]: > 95 µM | TGI [41]: > 28.6 µM | TGI [42]: 42 µM | TGI [43]: > 100 µM | TGI [44]: 26.8 µM | TGI [45]: > 37.6 µM | TGI [46]: > 100 µM | TGI [47]: 18.1 µM | TGI [48]: 2.25 µM | TGI [49]: > 100 µM | TGI [50]: > 47.3 µM | TGI [51]: > 100 µM | TGI [52]: 7.87 µM | TGI [53]: > 100 µM | TGI [54]: > 30.5 µM

CC(C)(C)CC(C)(C)c1ccc(O)c(C[N+](C)(C)[O-])c1
TGI [1]: > 100 µM | TGI [2]: > 100 µM | TGI [3]: > 100 µM | TGI [4]: > 100 µM | TGI [5]: > 100 µM | TGI [6]: > 100 µM | TGI [7]: > 100 µM | TGI [8]: > 100 µM | TGI [9]: > 100 µM | TGI [10]: > 100 µM | TGI [55]: > 100 µM | TGI [11]: > 100 µM | TGI [12]: > 100 µM | TGI [13]: 99.6 µM | TGI [14]: > 100 µM | TGI [15]: > 100 µM | TGI [16]: > 100 µM | TGI [17]: > 100 µM | TGI [18]: > 100 µM | TGI [19]: > 100 µM | TGI [20]: > 100 µM | TGI [21]: > 100 µM | TGI [22]: > 100 µM | TGI [23]: > 100 µM | TGI [24]: > 100 µM | TGI [25]: > 100 µM | TGI [26]: > 100 µM | TGI [27]: > 100 µM | TGI [28]: > 100 µM | TGI [56]: > 100 µM | TGI [29]: > 100 µM | TGI [57]: > 100 µM | TGI [30]: > 100 µM | TGI [31]: > 100 µM | TGI [32]: > 100 µM | TGI [33]: > 100 µM | TGI [34]: > 100 µM | TGI [35]: > 100 µM | TGI [36]: > 100 µM | TGI [37]: > 100 µM | TGI [38]: > 100 µM | TGI [39]: > 100 µM | TGI [40]: > 100 µM | TGI [41]: > 100 µM | TGI [42]: > 100 µM | TGI [43]: > 100 µM | TGI [58]: > 100 µM | TGI [44]: > 100 µM | TGI [45]: > 100 µM | TGI [46]: > 100 µM | TGI [47]: > 100 µM | TGI [48]: > 100 µM | TGI [49]: > 100 µM | TGI [50]: > 100 µM | TGI [51]: > 100 µM | TGI [52]: > 100 µM | TGI [53]: > 100 µM | TGI [59]: > 100 µM | TGI [54]: > 100 µM

CC(=O)N/C(=C\c1ccc(Cc2nc3c([nH]2)C(=O)c2ccccc2C3=O)cc1)c1nc2c([nH]1)C(=O)c1ccccc1C2=O
TGI [1]: > 100 µM | TGI [2]: > 100 µM | TGI [3]: > 100 µM | TGI [4]: > 100 µM | TGI [6]: > 100 µM | TGI [7]: > 100 µM | TGI [8]: > 100 µM | TGI [60]: > 100 µM | TGI [61]: > 100 µM | TGI [10]: > 100 µM | TGI [55]: > 100 µM | TGI [11]: > 100 µM | TGI [13]: > 100 µM | TGI [14]: > 100 µM | TGI [15]: > 100 µM | TGI [17]: > 100 µM | TGI [18]: > 100 µM | TGI [19]: > 100 µM | TGI [20]: > 100 µM | TGI [62]: > 100 µM | TGI [21]: > 100 µM | TGI [63]: > 100 µM | TGI [22]: > 100 µM | TGI [64]: > 100 µM | TGI [23]: > 100 µM | TGI [28]: > 100 µM | TGI [56]: > 100 µM | TGI [29]: > 100 µM | TGI [57]: > 100 µM | TGI [30]: > 100 µM | TGI [32]: > 100 µM | TGI [33]: > 100 µM | TGI [34]: > 100 µM | TGI [35]: > 100 µM | TGI [37]: > 100 µM | TGI [38]: > 100 µM | TGI [39]: > 100 µM | TGI [40]: > 100 µM | TGI [41]: > 100 µM | TGI [42]: > 100 µM | TGI [43]: > 100 µM | TGI [58]: > 100 µM | TGI [44]: > 100 µM | TGI [45]: > 100 µM | TGI [46]: > 100 µM | TGI [47]: > 100 µM | TGI [49]: > 100 µM | TGI [51]: > 100 µM | TGI [52]: > 100 µM | TGI [53]: > 100 µM | TGI [54]: > 100 µM
